Reference: patent US6498179B1, “Oxazole derivatives, their production and use” (Takeda Chemical Industries, Ltd., priority 1996, dated 2002)

System: KKA^y mice
Assay: Test for blood sugar depression in mice
Type: in vivo
Conditions: Mus musculus, 1 h; fasted male KKA^y mice, oral 30 mg/kg, 60 minutes after administration, compared with control group; read-out: Degree of Blood Glucose Depression (%) After 60 minutes
Description: After being fasted for 20 hours, 9- to 12-week-old, male KKA^y mice (five mice in each group) were orally given the test compound at a dose of 30 mg/kg/10 ml through a stomach tube. Control mice were orally given 5% gum arabic solution. Blood samples (70 μl) were obtained from orbital venous plexus through capillary tube before and 60 and 120 minutes after the administration of the test compound. Blood glucose was determined according to a glucose oxidase method using a commercial kit (Iatrochem, GIU(A), Iatron Labs. Inc.). Blood glucose level at 60 or 120 minutes of the test groups was compared with that of control group, and was shown as blood glucose depression (%) (Table 1).

Row | Structure (SMILES) | inhibition in vivo at 30 mg/kg [%]
1 | CSc1nccn1-c1nc(-c2ccc(Cl)cc2)c(CCC(=O)O)o1 [Example 32, 4-(4-chlorophenyl)-2-(2-methylthio-1-imidazolyl)-5-oxazolep ropionic acid] | 25
2 | Cc1nccn1-c1nc(-c2ccc(Cl)cc2)c(CCC(=O)O)o1 [Example 25, 4-(4-chlorophenyl)-2-(2-methyl-1-imidazolyl)-5-oxazolepropionic acid] | 38
3 | O=C(O)CCc1oc(Sc2ccccn2)nc1-c1ccc(Cl)cc1 [Example 15, 4-(4-chlorophenyl)-2-(2-pyridylthio)-5-oxazolepropionic acid] | 22
4 | O=C(O)CCc1oc(-n2cccn2)nc1-c1ccc(Cl)cc1 [Example 28, 4-(4-chlorophenyl)-2-(1-pyrazolyl)-5-oxazolepropionic acid] | 24
5 | O=C(O)CCc1oc(-n2cnc3ccccc32)nc1-c1ccc(Cl)cc1 [Example 34, 4-(4-chlorophenyl)-2-(1-benzimidazolyl)-5-oxazolepropionic acid] | 27
6 | CCc1nccn1-c1nc(-c2ccc(Cl)cc2)c(CCC(=O)O)o1 [Example 26, 4-(4-chlorophenyl)-2-(2-ethyl-1-imidazolyl)-5-oxazolepropionic acid] | 32
7 | CC(C)c1nccn1-c1nc(-c2ccc(Cl)cc2)c(CCC(=O)O)o1 [Example 31, 4-(4-chlorophenyl)-2-(2-isopropyl-1-imidazolyl)-5-oxazolepropionic acid] | 27

Same assay, conditions: Mus musculus, 2 h; fasted male KKA^y mice, oral 30 mg/kg, 120 minutes after administration, compared with control group; read-out: Degree of Blood Glucose Depression (%) After 120 minutes

Row | Structure (SMILES) | inhibition in vivo at 30 mg/kg [%]
8 | CSc1nccn1-c1nc(-c2ccc(Cl)cc2)c(CCC(=O)O)o1 [Example 32, 4-(4-chlorophenyl)-2-(2-methylthio-1-imidazolyl)-5-oxazolep ropionic acid] | 28
9 | Cc1nccn1-c1nc(-c2ccc(Cl)cc2)c(CCC(=O)O)o1 [Example 25, 4-(4-chlorophenyl)-2-(2-methyl-1-imidazolyl)-5-oxazolepropionic acid] | 27
10 | O=C(O)CCc1oc(Sc2ccccn2)nc1-c1ccc(Cl)cc1 [Example 15, 4-(4-chlorophenyl)-2-(2-pyridylthio)-5-oxazolepropionic acid] | 26
11 | O=C(O)CCc1oc(-n2cccn2)nc1-c1ccc(Cl)cc1 [Example 28, 4-(4-chlorophenyl)-2-(1-pyrazolyl)-5-oxazolepropionic acid] | 33
12 | O=C(O)CCc1oc(-n2cnc3ccccc32)nc1-c1ccc(Cl)cc1 [Example 34, 4-(4-chlorophenyl)-2-(1-benzimidazolyl)-5-oxazolepropionic acid] | 25
13 | CCc1nccn1-c1nc(-c2ccc(Cl)cc2)c(CCC(=O)O)o1 [Example 26, 4-(4-chlorophenyl)-2-(2-ethyl-1-imidazolyl)-5-oxazolepropionic acid] | 27
14 | CC(C)c1nccn1-c1nc(-c2ccc(Cl)cc2)c(CCC(=O)O)o1 [Example 31, 4-(4-chlorophenyl)-2-(2-isopropyl-1-imidazolyl)-5-oxazolepropionic acid] | 28

System: not given
Assay: not given
Conditions: not given

Row | Structure (SMILES) | melting point [°C]
15 | O=C(O)CCc1oc(-n2ccnc2)nc1-c1ccc(Cl)cc1 [Example 24, 4-(4-chlorophenyl)-2-(1-imidazolyl)-5-oxazolepropionic acid] | 194 to 195
16 | Cc1nccn1-c1nc(-c2ccc(Cl)cc2)c(CCO)o1 [Example 78, 4-(4-chlorophenyl)-2-(2-methyl-1-imidazolyl)-5-oxazolethanol] | 159 to 160
17 | CCOC(=O)CCCc1oc(-n2ccnc2C)nc1-c1ccc(Cl)cc1 [Example 64, ethyl 4-(4-chlorophenyl)-2-(2-methyl-1-imidazolyl)-5-oxazolebutyrate] | 72 to 73
18 | Cc1nccn1-c1nc(-c2ccc(Cl)cc2)c(CCCC(=O)NCCCl)o1 | 131 to 132
19 | Cc1nccn1-c1nc(-c2ccc(Cl)cc2)c(CCC2NCCS2)o1 (centres unmarked) [Example 70, 2-[2-[4-(4-chlorophenyl)-2-(2-methyl-1-imidazolyl)-5-oxazolyl]ethyl]thiazolidine] | 110 to 111
20 | CON(C)C(=O)CCc1oc(-n2ccnc2C)nc1-c1ccc(Cl)cc1 [Example 68, N-methoxy-N-methyl-4-(4-chlorophenyl)-2-(2-methyl-1-imidazolyl)-5-oxazolepropionamide] | 116 to 117
21 | CNc1nc(-c2ccc(Cl)cc2)c(CCC(=O)O)o1 [Example 16, 4-(4-chlorophenyl)-2-methylamino-5-oxazolepropionic acid] | 217 to 218
22 | Cc1nccn1-c1nc(-c2ccc(Cl)cc2)c(CCCC2=NCCO2)o1 [Example 67, 4-(4-chlorophenyl)-2-(2-methyl-1-imidazolyl)-5-[3-(2-oxazolin-2-yl)propyl]oxazole] | 88 to 89
23 | CCCc1nccn1-c1nc(-c2ccc(Cl)cc2)c(CCC(=O)O)o1 [Example 30, 4-(4-chlorophenyl)-2-(2-propyl-1-imidazolyl)-5-oxazolepropionic acid] | 174 to 175
24 | O=C(O)CCc1oc(SCc2ccccn2)nc1-c1ccc(Cl)cc1 [Example 8, 4-(4-chlorophenyl)-2-(2-pyridylmethylthio)-5-oxazolepropionic acid] | 125 to 126
25 | CCc1nccn1-c1nc(-c2ccc(Cl)cc2)c(CCC2=NCCO2)o1 [Example 50, 4-(4-chlorophenyl)-2-(2-ethyl-1-imidazolyl)-5-[2-(2-oxazolin-2-yl)ethyl]oxazole] | 53 to 54
26 | O=C(O)CCc1oc(Sc2ccccc2)nc1-c1ccc(Cl)cc1 [Example 10, 4-(4-chlorophenyl)-2-phenylthio-5-oxazolepropionic acid] | 156 to 157
27 | Cc1nccn1-c1nc(-c2ccc(Cl)cc2)c(CCCOS(C)(=O)=O)o1 [Example 71, 3-[4-(4-chlorophenyl)-2-(2-methyl-1-imidazolyl)-5-oxazolyl]propyl methanesulfonate] | 97 to 98
28 | O=C(O)CCc1oc(Cl)nc1-c1ccc(Cl)cc1 [Example 2, 2-chloro-4-(4-chlorophenyl)-5-oxazolepropionic acid] | 169 to 170
29 | CCOc1nc(-c2ccc(Cl)cc2)c(CCC(=O)O)o1 [Example 3, 4-(4-chlorophenyl)-2-ethoxy-5-oxazolepropionic acid] | 148 to 149
30 | CCOC(=O)CCc1oc(-n2ccnc2C)nc1-c1ccc(Cl)cc1 [Example 52, ethyl 4-(4-chlorophenyl)-2-(2-methyl-1-imidazolyl)-5-oxazolepropionate] | 70 to 71
31 | COC(=O)CCc1oc(Cl)nc1-c1ccc(Cl)cc1 [Example 1, methyl 2-chloro-4-(4-chlorophenyl)-5-oxazolepropionate] | 71 to 72

The next lines start with the values.

Row | melting point [°C] | Structure (SMILES)
32 | 74 to 75 | Cc1nccn1-c1nc(-c2ccc(Cl)cc2)c(CCCCn2cncn2)o1 [Example 88, 1-[4-[4-(4-chlorophenyl)-2-(2-methyl-1-imidazolyl)-5-oxazolyl]butyl]1,2,4-triazole]
33 | 129 to 130 | O=C(O)CCc1oc(SCc2cccnc2)nc1-c1ccc(Cl)cc1 [Example 9, 4-(4-chlorophenyl)-2-(3-pyridylmethylthio)-5-oxazolepropionic acid]
34 | 134 to 135 | CCOC(=O)c1nccn1CCCCc1oc(-n2ccnc2C)nc1-c1ccc(Cl)cc1 [Example 92, ethyl 1-[4-[4-(4-chlorophenyl)-2-(2-methyl-1-imidazolyl)-5-oxazolyl]butyl]-2-imidazolecarboxylate]
35 | 155 to 156 | Cc1nccn1-c1nc(-c2ccc(Cl)cc2)c(CCC(=O)NCCCl)o1
36 | 197 to 199 | Cc1nccn1-c1nc(-c2ccc(Cl)cc2)c(CCCCCn2ccnc2)o1.Cl.Cl.O (hydrate or solvate)
37 | 119 to 120 | Cc1nccn1-c1nc(-c2ccc(Cl)cc2)c(CCC2=NCCO2)o1 [Example 46, 4-(4-chlorophenyl)-2-(2-methyl-1-imidazolyl)-5-[2-(2-oxazolin-2-yl)ethyl]oxazole]
38 | 180 to 181 | O=C(O)CCc1oc(N2CCOCC2)nc1-c1ccc(Cl)cc1 [Example 18, 4-(4-chlorophenyl)-2-morpholino-5-oxazolepropionic acid]
39 | 116 to 117 | CC(C)Oc1nc(-c2ccc(Cl)cc2)c(CCC(=O)O)o1 [Example 4, 4-(4-chlorophenyl)-2-isopropoxy-5-oxazolepropionic acid]
40 | 136 to 137 | O=C(O)CCc1oc(Oc2ccccc2)nc1-c1ccc(Cl)cc1 [Example 5, 4-(4-chlorophenyl)-2-phenoxy-5-oxazolepropionic acid]
41 | 70 to 71 | Cc1nccn1-c1nc(-c2ccc(Cl)cc2)c(CCCCCCO)o1 [Example 84, 4-(4-chlorophenyl)-2-(2-methyl-1-imidazolyl)-5-oxazolehexanol]
42 | 160 to 161 | Cc1ccc(Sc2nc(-c3ccc(Cl)cc3)c(CCC(=O)O)o2)cc1 [Example 11, 4-(4-chlorophenyl)-2-(4-methylphenylthio)-5-oxazolepropionic acid]
43 | 73 to 74 | Cc1nccn1-c1nc(-c2ccc(Cl)cc2)c(CCC2=NCCS2)o1 [Example 60, 4-(4-chlorophenyl)-2-(2-methyl-1-imidazolyl)-5-[2-(2-thiazolin-2-yl)ethyl]oxazole]
44 | 215 to 216 | Cc1nccn1-c1nc(-c2ccc(Cl)cc2)c(CCC(N)=O)o1 [Example 41, 4-(4-chlorophenyl)-2-(2-methyl-1-imidazolyl)-5-oxazolepropionamide]
45 | 114 to 115 | OCCCc1oc(-n2ccnc2)nc1-c1ccc(Cl)cc1 [Example 57, 4-(4-chlorophenyl)-2-(1-imidazolyl)-5-oxazolepropanol]
46 | 93 to 94 | CCOC(=O)CCCCc1oc(-n2ccnc2C)nc1-c1ccc(Cl)cc1 [Example 81, ethyl 4-(4-chlorophenyl)-2-(2-methyl-1-imidazolyl)-5-oxazolepentanoate]
47 | 211 to 212 | O=C(O)CCCc1oc(Cl)nc1-c1ccc(Cl)cc1 [Example 62, 2-chloro-4-(4-chlorophenyl)-5-oxazolebutyric acid]
48 | 109 to 110 | Cc1nccn1-c1nc(-c2ccc(Cl)cc2)c(CCC=O)o1 [Example 69, 4-(4-chlorophenyl)-2-(2-methyl-1-imidazolyl)-5-oxazolepropionaldehyde]
49 | 132 to 133 | CC(C)Sc1nc(-c2ccc(Cl)cc2)c(CCC(=O)O)o1 [Example 7, 4-(4-chlorophenyl)-2-isopropylthio-5-oxazolepropionic acid]
50 | 183 to 184 | CSc1nc(-c2ccc(Cl)cc2)c(CCC(=O)O)o1 [Example 6, 4-(4-chlorophenyl)-2-methylthio-5-oxazolepropionic acid]
